From patent publication US7205305B2, “Inhibitors of p38” (Vertex Pharmaceuticals Incorporated, priority 1996, dated 2007)
Where two headings read alike, the source gives them in different places.

Experiments:
[1] = tested on: IL-1 production in LPS-stimulated PBMCs; assay: Inhibition of IL-1 production in LPS-stimulated PBMCs ("cell"); type: cell-based, human
Description: (§1) Inhibitors were serially diluted in DMSO from a 20 mM stock. At least 6 serial dilutions were prepared. Then 4× inhibitor stocks were prepared by adding 4 μl of an inhibitor dilution to 1 ml of RPMI1640 medium/10% fetal bovine serum. The 4× inhibitor stocks contained inhibitor at concentrations of 80 μM, 32 μM, 12.8 μM, 5.12 μM, 2.048 μM, 0.819 μM, 0.328 μM, 0.131 μM, 0.052 μM, 0.021 μM etc. The 4× inhibitor stocks were pre-warmed at 37° C. until use.
(§2) Fresh human blood buffy cells were separated from other cells in a Vacutainer CPT from Becton & Dickinson (containing 4 ml blood and enough DPBS without Mg^2+/Ca^2+ to fill the tube) by centrifugation at 1500×g for 15 min. Peripheral blood mononuclear cells (PBMCs), located on top of the gradient in the Vacutainer, were removed and washed twice with RPMI1640 medium/10% fetal bovine serum. PBMCs were collected by centrifugation at 500×g for 10 min. The total cell number was determined using a Neubauer Cell Chamber and the cells were adjusted to a concentration of 4.8×10^6 cells/ml in cell culture medium (RPMI1640 supplemented with 10% fetal bovine serum).
(§3) We placed 100 μl of cell suspension or whole blood in each well of a 96-well cell culture plate. Then we added 50 μl of the 4× inhibitor stock to the cells. Finally, we added 50 μl of a lipopolysaccharide (LPS) working stock solution (16 ng/ml in cell culture medium) to give a final concentration of 4 ng/ml LPS in the assay. The total assay volume of the vehicle control was also adjusted to 200 μl by adding 50 μl cell culture medium. The PBMC cells or whole blood were then incubated overnight (for 12–15 hours) at 37° C./5% CO2 in a humidified atmosphere.
(§4) The next day the cells were mixed on a shaker for 3–5 minutes before centrifugation at 500×g for 5 minutes. Cell culture supernatants were harvested and analyzed by ELISA for levels of IL-1b (R & D Systems, Quantikine kits, #DBL50), TNF-α (BioSource, #KHC3012), IL-6 (Endogen, #EH2-IL6) and IL-8 (Endogen, #EH2-IL8) according to the instructions of the manufacturer. The ELISA data were used to generate dose-response curves from which IC50 values were derived.

[2] = tested on: IL-1 production in whole blood; assay: Inhibition of IL-1 production in LPS-stimulated whole blood ("WB"); type: cell-based, human
Description: as §1
(§5) Alternatively, whole blood containing an anti-coagulant was used directly in the assay.
as §3, §4

[3] = tested on: TNF production in whole blood; assay: Inhibition of TNF production in LPS-stimulated whole blood ("WB"); type: cell-based, human
Description: as §1, §5, §3, §4

[4] = tested on: IL-6 production in whole blood; assay: Inhibition of IL-6 production in LPS-stimulated whole blood ("WB"); type: cell-based, human
Description: as §1, §5, §3, §4

[5] = tested on: TNF production in LPS-stimulated PBMCs; assay: Inhibition of TNF production in LPS-stimulated PBMCs ("cell"); type: cell-based, human
Description: as §1, §2, §3, §4

activated p38 = activated p38 (Homo sapiens, UniProt Q16539); assay: Inhibition of phosphorylation of EGF receptor peptide ("kinase"); type: biochemical; conditions: inhibition of phosphorylation of EGF receptor peptide by activated p38
Summary of the method: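 Activated p38 was preincubated with inhibitor for 15 min at room temperature in 100 mM HEPES pH 7.6, 10 mM MgCl2, 25 mM β-glycerophosphate, 10% glycerol, 5% DMSO final. Reaction used 200 μM EGF receptor peptide and 100 μM ATP for 30 min at 30° C. TFA-quenched phosphopeptide was quantified by reverse-phase HPLC.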

Sequence of activated p38 (Q16539 whole entry): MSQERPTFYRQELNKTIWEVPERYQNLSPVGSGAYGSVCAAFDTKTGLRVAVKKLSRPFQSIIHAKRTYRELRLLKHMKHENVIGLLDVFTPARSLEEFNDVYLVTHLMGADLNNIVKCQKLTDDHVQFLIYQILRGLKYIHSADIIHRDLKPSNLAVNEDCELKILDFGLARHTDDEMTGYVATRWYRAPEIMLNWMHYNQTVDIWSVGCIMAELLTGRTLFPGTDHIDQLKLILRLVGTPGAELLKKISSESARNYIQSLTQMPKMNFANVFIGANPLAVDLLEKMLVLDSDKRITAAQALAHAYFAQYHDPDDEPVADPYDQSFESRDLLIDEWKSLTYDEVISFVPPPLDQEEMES

| Structure (SMILES) | IC50 ([1]; Homo sapiens, PBMC) | IC50 ([2]; Homo sapiens) | IC50 ([3]; Homo sapiens) | IC50 ([4]; Homo sapiens) | IC50 ([5]; Homo sapiens, PBMC) | IC50 (activated p38) | IC50 [1] | IC50 [2] | IC50 [3] | IC50 [4] | IC50 [5] |
| --- | --- | --- | --- | --- | --- | --- | --- | --- | --- | --- | --- |
| NC(=O)C(c1cccc(-c2ccc(Cl)cc2Cl)n1)c1c(F)cccc1Cl (stereo not drawn) [Compound 346] | ≥ 500 nM | ≥ 500 nM | ≥ 500 nM | ≥ 500 nM | ≥ 500 nM | 100 to 1000 nM |  |  |  |  |  |
| NC(=O)C(c1cccc(-c2ccccc2)n1)c1c(F)cccc1Cl (stereo not drawn) [Compound 306] | 100 to 500 nM | ≥ 500 nM | ≥ 500 nM | ≥ 500 nM | ≥ 500 nM | 100 to 1000 nM |  |  |  |  |  |
| COc1ccc(-c2c(=O)ncn3nc(Sc4ccc(F)cc4)ccc23)c(Cl)c1OC [Compound 36] | ≥ 500 nM | ≥ 500 nM | ≥ 500 nM | ≥ 500 nM | ≥ 500 nM | ≥ 1000 nM |  |  |  |  |  |
| O=C1NCN2N=C(Sc3ccc(F)cc3)C=CC2=C1c1cc2c(cc1Cl)OCO2 [Compound 129] | ≤ 100 nM | 250 to 500 nM | ≥ 500 nM | 250 to 500 nM | ≤ 100 nM | ≤ 100 nM |  |  |  |  |  |
| Nc1ccc(Cl)c(C2=C3C=CC(Sc4ccc(F)cc4)=NN3CNC2=O)c1Cl [Compound 125] | ≤ 100 nM | ≥ 500 nM | ≥ 500 nM | ≥ 500 nM | ≤ 100 nM | ≤ 100 nM |  |  |  |  |  |
| CNCc1ccccc1-c1cccc(C(C(N)=O)c2c(Cl)cccc2Cl)n1 (stereo not drawn) [Compound 303] | ≥ 500 nM | ≥ 500 nM | ≥ 500 nM | ≥ 500 nM | ≥ 500 nM | ≥ 1000 nM |  |  |  |  |  |
| O=C1NCN2N=C(Sc3ccccc3C(=O)O)C=CC2=C1c1c(Cl)cccc1Cl [Compound 104] | 100 to 500 nM | ≥ 500 nM | ≥ 500 nM | ≥ 500 nM | 100 to 500 nM | 100 to 1000 nM |  |  |  |  |  |
| NC(=O)C(c1cccc(-c2ccccc2)n1)c1c(Cl)cccc1Cl (stereo not drawn) [202/301] | 100 to 500 nM | ≥ 500 nM | ≥ 500 nM | ≥ 500 nM | 100 to 500 nM | ≤ 100 nM |  |  |  |  |  |
| Cc1ccccc1-c1cccc(C(C(N)=O)c2c(Cl)cccc2Cl)n1 (stereo not drawn) [Compound 305] | ≤ 100 nM | ≥ 500 nM | ≥ 500 nM | ≥ 500 nM | ≥ 500 nM | ≤ 100 nM |  |  |  |  |  |
| Cc1ccccc1SC1=NN2CNC(=O)C(c3c(Cl)cccc3Cl)=C2C=C1 [Compound 102] | ≤ 100 nM | ≥ 500 nM | 250 to 500 nM | 250 to 500 nM | ≤ 100 nM | ≤ 100 nM |  |  |  |  |  |
| Nc1cc(F)ccc1SC1=NN2CNC(=O)C(c3c(Cl)cccc3Cl)=C2C=C1 [Compound 117] | ≤ 100 nM | 250 to 500 nM | 250 to 500 nM | ≤ 250 nM | ≤ 100 nM | ≤ 100 nM |  |  |  |  |  |
| Nc1ccc(Cl)c(-c2c(=O)ncn3nc(Sc4ccc(Br)cc4)ccc23)c1Cl [Compound 37] | 100 to 500 nM | ≥ 500 nM | ≥ 500 nM | ≥ 500 nM | ≥ 500 nM | 100 to 1000 nM |  |  |  |  |  |
| Cc1ccccc1-c1cccc(N(C(N)=O)c2c(Cl)cccc2Cl)n1 [Compound 402] | ≤ 100 nM | ≥ 500 nM | ≥ 500 nM | ≥ 500 nM | ≤ 100 nM | ≤ 100 nM |  |  |  |  |  |
| Cc1ccccc1Sc1ccc2c(-c3c(Cl)cccc3Cl)c(=O)ncn2n1 [Compound 23] | 100 to 500 nM | ≥ 500 nM | ≥ 500 nM | ≥ 500 nM | ≥ 500 nM | 100 to 1000 nM |  |  |  |  |  |
| COC(=O)c1ccccc1Sc1ccc2c(-c3c(Cl)cccc3Cl)c(=O)ncn2n1 [Compound 26] | ≤ 100 nM | ≥ 500 nM | ≥ 500 nM | ≥ 500 nM | 100 to 500 nM | ≥ 1000 nM |  |  |  |  |  |
| Cc1ccccc1-c1cccc(N(C(N)=O)c2c(F)cccc2F)n1 [Compound 403] | ≤ 100 nM | ≥ 500 nM | ≥ 500 nM | 250 to 500 nM | ≤ 100 nM | ≤ 100 nM |  |  |  |  |  |
| Cc1ccc(SC2=NN3CNC(=O)C(c4c(Cl)cccc4Cl)=C3C=C2)c(C)c1 [Compound 113] | ≤ 100 nM | ≥ 500 nM | ≥ 500 nM | ≥ 500 nM | 100 to 500 nM | ≤ 100 nM |  |  |  |  |  |

| Structure (SMILES) | IC50 ([1]; Homo sapiens, PBMC) | IC50 ([2]; Homo sapiens) | IC50 ([3]; Homo sapiens) | IC50 ([4]; Homo sapiens) | IC50 ([5]; Homo sapiens, PBMC) | IC50 (activated p38) | IC50 [1] | IC50 [2] | IC50 [3] | IC50 [4] | IC50 [5] |
| --- | --- | --- | --- | --- | --- | --- | --- | --- | --- | --- | --- |
| NC(=O)C(c1cccc(-c2ccc(F)cc2)n1)c1c(F)cccc1Cl (stereo not drawn) [Compound 329] | 100 to 500 nM | ≥ 500 nM | ≥ 500 nM | ≥ 500 nM | ≥ 500 nM | 100 to 1000 nM |  |  |  |  |  |
| O=c1ncn2nc(Sc3ccc(F)cc3Cl)ccc2c1-c1c(Cl)cccc1Cl [Compound 38] | ≤ 100 nM | 250 to 500 nM | 250 to 500 nM | 250 to 500 nM | 100 to 500 nM | ≤ 100 nM |  |  |  |  |  |
| O=C1NCN2N=C(Sc3ccccc3CNc3ncc[nH]3)C=CC2=C1c1c(Cl)cccc1Cl [Compound 123] | 100 to 500 nM | ≥ 500 nM | ≥ 500 nM | ≥ 500 nM | 100 to 500 nM | 100 to 1000 nM |  |  |  |  |  |
| NC(=O)C(c1cccc(-c2ccccc2)n1)c1cc(Cl)ccc1Cl (stereo not drawn) [Compound 349] | 100 to 500 nM | ≥ 500 nM | ≥ 500 nM | ≥ 500 nM | ≥ 500 nM | ≥ 1000 nM |  |  |  |  |  |
| COC(=O)c1ccccc1SC1=NN2CNC(=O)C(c3c(Cl)cccc3Cl)=C2C=C1 [Compound 101] | ≤ 100 nM | ≥ 500 nM | ≥ 500 nM | 250 to 500 nM | ≤ 100 nM | 100 to 1000 nM |  |  |  |  |  |
| NC(=O)N(c1cccc(-c2ccccc2)n1)c1c(Cl)cccc1Cl [Compound 401] | 100 to 500 nM | ≥ 500 nM | ≥ 500 nM | ≥ 500 nM | 100 to 500 nM | ≤ 100 nM |  |  |  |  |  |
| COc1ccc(C2=C3C=CC(Sc4ccc(F)cc4)=NN3CNC2=O)c(Cl)c1OC [Compound 121] | ≤ 100 nM | ≥ 500 nM | ≥ 500 nM | ≥ 500 nM | 100 to 500 nM | ≤ 100 nM |  |  |  |  |  |
| O=c1ncn2nc(Sc3ccc(F)cc3)ccc2c1-c1c(Cl)cccc1Cl [Compound 12] | 100 to 500 nM | ≥ 500 nM | ≥ 500 nM | ≥ 500 nM | 100 to 500 nM | 100 to 1000 nM |  |  |  |  |  |
| O=C1NCN2N=C(Sc3ccccc3CO)C=CC2=C1c1c(Cl)cccc1Cl [Compound 108] | 100 to 500 nM | 250 to 500 nM | ≤ 250 nM | ≤ 250 nM | ≤ 100 nM | ≤ 100 nM |  |  |  |  |  |
| Nc1ccc(F)cc1SC1=NN2CNC(=O)C(c3c(Cl)cccc3Cl)=C2C=C1 [Compound 122] | 100 to 500 nM | ≥ 500 nM | ≥ 500 nM | ≥ 500 nM | ≥ 500 nM | 100 to 1000 nM |  |  |  |  |  |
| Cc1ccccc1-c1cccc(C(C(N)=O)c2c(F)cccc2Cl)n1 (stereo not drawn) [Compound 335] | ≥ 500 nM | ≥ 500 nM | ≥ 500 nM | ≥ 500 nM | ≥ 500 nM | 100 to 1000 nM |  |  |  |  |  |
| NC(=O)N(c1cccc(-c2ccc(F)cc2)n1)c1c(F)cccc1F [Compound 404] | ≤ 100 nM | ≥ 500 nM | ≥ 500 nM | ≥ 500 nM | ≤ 100 nM | ≤ 100 nM |  |  |  |  |  |
| CC(=O)Nc1ccc(C2=C3C=CC(Sc4ccc(F)cc4)=NN3CNC2=O)c(Cl)c1 [Compound 143] | ≤ 100 nM | ≥ 500 nM | ≥ 500 nM | ≥ 500 nM | 100 to 500 nM | ≤ 100 nM |  |  |  |  |  |
| O=C1NCN2N=C(Sc3ccccc3O)C=CC2=C1c1c(Cl)cccc1Cl [Compound 114] | ≤ 100 nM | 250 to 500 nM | 250 to 500 nM | ≤ 250 nM | ≤ 100 nM | ≤ 100 nM |  |  |  |  |  |
| O=C1NCN2N=C(Sc3ccc(F)cc3Cl)C=CC2=C1c1cc2c(cc1Cl)OCO2 [Compound 145] |  |  |  |  |  | ≤ 100 nM | ≤ 100 nM | ≤ 250 nM | ≤ 250 nM | ≤ 250 nM | ≤ 100 nM |
| NC(=O)C(c1cccc(-c2ccccc2/C=N\O)n1)c1c(Cl)cccc1Cl (stereo not drawn) [Compound 307] | 100 to 500 nM | ≥ 500 nM | ≥ 500 nM | ≥ 500 nM | ≥ 500 nM | ≤ 100 nM |  |  |  |  |  |
